Structures are written as SMILES. pEC50: −log10 of the molar value.

This is an account of results in patent US20160311826A1, “SGC STIMULATORS” (IRONWOOD PHARMACEUTICALS, INC., priority 2013, published 2016).

In the first assay the test system is lambs with acute pulmonary hypertension.
Assay: not given
The conditions noted are these: after inhaling the microparticles; cited from earlier work.
On to `Nc1nc(-c2nn(Cc3ccccc3F)c3ncccc23)nc(N)c1N1CCOCC1` [BAY 41-8543], for which the “magnitude and duration of pulmonary vasodilation induced by iNO” value is “augmented”.

Still in this assay, the particulars now being: inhaled microparticles after ODQ; cited from earlier work.
As to `O=C(O)CCCCN(CCc1ccccc1OCc1ccc(CCc2ccccc2)cc1)Cc1ccc(C(=O)O)cc1` [BAY 58-2667], the “pulmonary vasodilation and transpulmonary cGMP release after treatment with ODQ” value is “greatly enhanced”.

Still in this assay, the particulars now being: inhaled microparticles with excipients; awake lambs, U-46619 infusion; cited from earlier work.
As to `Nc1nc(-c2nn(Cc3ccccc3F)c3ncccc23)ncc1C1CC1` [BAY 41-2272], the “effect on mean arterial pressure” value was “without significant effect on mean arterial pressure”, the pulmonary vasodilation entry is reported as “dose dependent pulmonary vasodilation” and the “transpulmonary cGMP release” value is “increased transpulmonary cGMP release”.

As for `Nc1nc(-c2nn(Cc3ccccc3F)c3ncccc23)nc(N)c1N1CCOCC1` [BAY 41-8543], the “effect on mean arterial pressure” value was “without significant effect on mean arterial pressure”, the pulmonary vasodilation result is given as “dose dependent pulmonary vasodilation” and the “transpulmonary cGMP release” value is listed as “increased transpulmonary cGMP release”.

Consider `O=C(O)CCCCN(CCc1ccccc1OCc1ccc(CCc2ccccc2)cc1)Cc1ccc(C(=O)O)cc1` [BAY 58-2667], for which the “effect on mean arterial pressure” value is “without significant effect on mean arterial pressure”, the pulmonary vasodilation entry is “dose dependent pulmonary vasodilation” and the “transpulmonary cGMP release” value is recorded as “increased transpulmonary cGMP release”.

Staying with this assay, now noted: inhaled microparticles; cited from earlier work.
On to `Nc1nc(-c2nn(Cc3ccccc3F)c3ncccc23)nc(N)c1N1CCOCC1` [BAY 41-8543], for which the systemic arterial oxygenation entry is “increased systemic arterial oxygenation”.

With `O=C(O)CCCCN(CCc1ccccc1OCc1ccc(CCc2ccccc2)cc1)Cc1ccc(C(=O)O)cc1` [BAY 58-2667], the systemic arterial oxygenation result was “increased systemic arterial oxygenation”.

The assay is the same for the next values; noted with them: intravenous administration; cited from earlier work.
For the compound `O=c1onc2cnc3ccccc3n12` [ODQ, 1H-[1,2,4]oxadiazolo[4,3-a]quinoxalin-1-one], the “effect on pulmonary vasodilator effect of iNO” value was “markedly reduced the pulmonary vasodilator effect of iNO”.

The next assay deals with T1, human recombinant soluble guanylate cyclase enzyme α1β1 (h sGC) (Homo sapiens, UniProt Q02108+Q02153).
T1 construct: purchased Enzo Life Sciences ALX-201-177
T1 sequence (Q02108 1-690): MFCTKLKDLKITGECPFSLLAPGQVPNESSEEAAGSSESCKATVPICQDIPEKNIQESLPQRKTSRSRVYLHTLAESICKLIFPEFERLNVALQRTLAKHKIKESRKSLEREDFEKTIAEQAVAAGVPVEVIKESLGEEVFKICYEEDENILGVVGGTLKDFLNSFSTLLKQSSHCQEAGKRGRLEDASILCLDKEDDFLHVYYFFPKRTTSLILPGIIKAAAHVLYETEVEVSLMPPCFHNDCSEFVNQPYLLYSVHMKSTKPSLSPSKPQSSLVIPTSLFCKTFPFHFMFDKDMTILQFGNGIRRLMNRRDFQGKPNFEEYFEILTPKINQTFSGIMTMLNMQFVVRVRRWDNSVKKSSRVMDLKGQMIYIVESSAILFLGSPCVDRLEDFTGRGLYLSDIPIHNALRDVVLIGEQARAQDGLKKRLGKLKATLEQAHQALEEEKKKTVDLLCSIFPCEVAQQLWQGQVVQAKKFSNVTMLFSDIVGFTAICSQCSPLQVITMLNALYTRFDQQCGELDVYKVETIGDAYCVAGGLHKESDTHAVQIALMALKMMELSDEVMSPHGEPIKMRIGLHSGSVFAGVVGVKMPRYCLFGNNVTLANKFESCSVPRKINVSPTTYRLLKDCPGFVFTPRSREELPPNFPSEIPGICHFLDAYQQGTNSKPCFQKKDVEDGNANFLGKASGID
T1 sequence (Q02153 1-619): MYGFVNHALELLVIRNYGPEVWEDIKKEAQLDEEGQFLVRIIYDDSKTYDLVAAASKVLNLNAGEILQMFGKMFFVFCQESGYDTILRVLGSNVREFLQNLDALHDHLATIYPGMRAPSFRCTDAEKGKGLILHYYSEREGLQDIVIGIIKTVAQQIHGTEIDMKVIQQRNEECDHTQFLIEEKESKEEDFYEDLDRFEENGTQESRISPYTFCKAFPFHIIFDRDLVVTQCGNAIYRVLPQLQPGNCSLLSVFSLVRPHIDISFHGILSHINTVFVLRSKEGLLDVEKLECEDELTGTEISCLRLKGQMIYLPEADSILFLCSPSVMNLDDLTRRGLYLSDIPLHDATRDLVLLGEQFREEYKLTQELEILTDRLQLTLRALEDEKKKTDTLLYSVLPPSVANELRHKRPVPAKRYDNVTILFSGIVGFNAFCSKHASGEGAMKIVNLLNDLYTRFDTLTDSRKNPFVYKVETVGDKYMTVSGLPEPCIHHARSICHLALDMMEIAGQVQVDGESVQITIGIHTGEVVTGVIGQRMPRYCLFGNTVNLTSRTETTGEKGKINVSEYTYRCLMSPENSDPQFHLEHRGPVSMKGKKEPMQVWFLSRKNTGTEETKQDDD
The experiment in a line: Purified human recombinant sGC α1β1 enzyme assay in the presence of DETA-NONOate (cGMP HTRF). The class given is biochemical.
Details: not given
The method, then: Purified human recombinant soluble guanylate cyclase enzyme α1β1 (h sGC) obtained from Enzo Life Sciences (P/N: ALX-201-177) was used to evaluate the activity of test compounds. The assay reactions contained 0.1 M Tris (pH 8.0), 0.5 mg/mL BSA, 2 mM DTT, 4 mM MgCl2, 30 uM DETA NONOate (Enzo Life Science P/N: ALX-430-014), and 12.5 ng/ml human soluble guanylate cyclase enzyme. […] Guanosine 5′-triphosphate (Sigma-Aldrich P/N: G8877) was added to a final concentration of 300 μM and enzyme reactions were incubated (100 μL, 384-well plate format) at 37° C. for 20 minutes. The controls contained 3% DMSO (low control), or 30 uM of Compound Y (high control). After the 20 minute incubation, the reaction was stopped with the addition of 100 μL of ice cold 20% acetic acid.
cGMP concentrations in all samples were determined using the cGMP HTRF (Cisbio P/N: 62GM2PEC) assay per manufacturer's instructions. A cGMP standard curve was fit using a 4-parameter fit (log(inhibitor) vs. response—variable slope) using GraphPad Prism Software v.6. Samples were diluted appropriately to ensure that values fell within the linear range of the standard curve. The EC50 was interpolated from the curve fit and is defined as the concentration at which the compound elicits 50% of the maximal response of the 30 uM of Compound Y, the high control compound.
(In general: Time-resolved FRET reads energy transfer from a long-lived donor to a nearby acceptor.)
One may read the pEC50 as the negative decadic logarithm of the EC50, by convention in mol/L. On to `CCOC(=O)C1(C)C(=O)Nc2nc(-c3nn(Cc4ccccc4F)c(=O)n3C)nc(N)c21` (stereo not drawn) [Compound I-29], for which the pEC50 is 5.30 to 5.70.

Turning to `CCOC(=O)C1(C)C(=O)Nc2nc(-c3nc(OC)n(Cc4ccccc4F)n3)nc(N)c21` (stereo not drawn) [Compound I-30], the pEC50 is 5.30 to 5.70.

The assay is the same for the next values; noted with them: 30 uM DETA NONOate; concentration eliciting 50% of high control response (30 uM Compound Y); read-out: sGC_Enz_HTRF_a1b1 EC50 Abs.
In the case of `O=c1[nH]c(-c2cc(OC(F)F)n(Cc3ccccc3F)n2)ncc1F` [Compound I-4], the pEC50 was less than 5.30.

As for `COc1cc(-c2ncc(F)c(=O)[nH]2)nn1Cc1ccccc1F` [Compound I-5], the pEC50 is less than 5.30.

Regarding `COc1cc(-c2nccc(N)n2)nn1Cc1ccccc1F` [Compound I-6], the pEC50 is less than 5.30.

For `COc1cc(-c2ncc(F)c(NCC(=O)O)n2)nn1Cc1ccccc1F` [Compound I-9], the pEC50 is less than 5.30.

`CC1(C(N)=O)C(=O)Nc2nc(-c3nn(Cc4ccccc4F)c(=O)[nH]3)nc(N)c21` (stereo not drawn) [Compound I-10]: the pEC50 was less than 4.52.

For `COc1cc(-c2ncc(F)c(NCCO)n2)nn1Cc1ccccc1F` [Compound I-13], the pEC50 was 5.30 to 5.70.

As for `COc1nc(-c2nc(N)c3c(n2)NC(=O)C3(C)C(N)=O)nn1Cc1ccccc1F` (stereo not drawn) [Compound I-17], the pEC50 was less than 5.30.

`Cn1c(-c2nc(N)c3c(n2)NC(=O)C3(C)C(N)=O)nn(Cc2ccccc2F)c1=O` (stereo not drawn) [Compound I-18]: the pEC50 was less than 5.30.

For `COc1cc(-c2ncc(F)c(NCc3cc(=O)[nH]o3)n2)nn1Cc1ccccc1F` [Compound I-19], the pEC50 was 5.30 to 5.70.

Turning to `COc1cc(-c2ncc(F)c(NCC(O)(C(N)=O)C(F)(F)F)n2)nn1Cc1ccccc1F` (stereo not drawn) [Compound I-20], the pEC50 was more than 5.70.

Take `CCOC(=O)C1(C)C(=O)Nc2nc(-c3nn(Cc4ccccc4F)c(=O)[nH]3)nc(N)c21` (stereo not drawn) [Compound I-21]: the pEC50 is less than 5.30.

`COc1nc(-c2nc(N)c3c(n2)NC(=O)C3(C)C(=O)NC2CC2)nn1Cc1ccccc1F` (stereo not drawn) [Compound I-37]: the pEC50 is 5.30 to 5.70.

Take `Cn1c(-c2nc(N)c3c(n2)NC(=O)C3(C)C(=O)NC2CC2)nn(Cc2ccccc2F)c1=O` (stereo not drawn) [Compound I-38]: the pEC50 was more than 5.70.

In the case of `CC1(C(N)=O)C(=O)Nc2nc(-c3cc(O)n(Cc4ccccc4F)n3)nc(N)c21` (stereo not drawn) [Compound I-48], the pEC50 was less than 5.30.

Turning to `Fc1cnc(-c2cc(OC(F)F)n(Cc3cccc(F)c3F)n2)nc1` [Compound I-59], the negative-log EC50 (pEC50) is less than 5.30.

For the compound `COc1cc(-c2ncc(F)c(NCC(O)CO)n2)nn1Cc1ccccc1F` (stereo not drawn) [Compound I-64], the pEC50 is 5.30 to 5.70.

For `COc1cc(-c2ncc(F)c(N3CCC[C@H](C)[C@@H]3C(=O)O)n2)nn1Cc1ccccc1F` [Compound I-70], the pEC50 was 5.30 to 5.70.

The next assay addresses T2, soluble guanylate cyclase (sGC) (Homo sapiens, UniProt Q02108+Q02153).
T2 construct: endogenously expressing soluble guanylate cyclase (sGC); endogenous in cells; host or cells: HEK293
T2 sequence (Q02153 1-619): T1 sequence (Q02153 1-619)
T2 sequence (Q02108 1-690): T1 sequence (Q02108 1-690)
The experiment in a line: sGC-HEK-cGMP assay with LC/MS detection. The class given is cell-based. Conditions: HEK293 cells, 10 μM DETA-NONOate; concentration eliciting 50% of high control response (30 μM Compound Y); read-out: sGC_HEK_LC MS EC50 Abs. The method, then:
Human embryonic kidney cells (HEK293), endogenously expressing soluble guanylate cyclase (sGC), were used to evaluate the activity of test compounds. Compounds stimulating the sGC enzyme should cause an increase in the intracellular concentration of cGMP. HEK 293 cells were seeded in Dulbecco's Modification of Eagle's Medium supplemented with fetal bovine serum (10% final) and penicillin (100 U/mL)/streptomycin (100 ug/mL) in a […] at a density of 1.5×10^4 cells/well in a poly-D-lysine coated 384 well flat bottom plate. Cells were incubated overnight at 37° C. in a humidified chamber with 5% CO2. Medium was aspirated and cells were washed with 1× Hank's Buffered Saline Salt Solution […]. Cells were then incubated for 15 minutes at 37° C. with 50 μL of a 0.5 mM 3-isobutyl-1-methylxanthine (IBMX) solution. Test article and Diethylenetriamine NONOate (DETA-NONOate) solutions (x μM concentration for test article solution and 10 μM concentration for DETA-NONOate solution; wherein x is one of the following concentrations);
were then added to the assay mixture and the resulting mixture incubated at 37° C. for 20 minutes. After the 20 minute incubation, the assay mixture was aspirated and 10% acetic acid containing 150 ng/mL+3-cGMP (internal standard for LCMS) (50 μL) was added to the cells. The plate was incubated at 4° C. for 30 minutes in the acetic acid solution to stop the reaction and lyse the cells. The plates were then centrifuged at 1,000g for 3 minutes at 4° C. and the supernatant transferred to a clean reaction plate for LCMS analysis.
cGMP concentrations were determined from each sample using the LCMS conditions below (Table 2) and calculated standard curve. The standard curve was prepared in 10% acetic acid with 150 ng/mL+3cGMP (isotopically labelled cGMP with a weight 3 units higher than wild type) with the following final concentrations of cGMP in ng/mL: 1, 5, 10, 50, 100, 250, 500, 1000, 2000.
Data were normalized to a high control using the following equation: 100*(Sample−Low Control)/(High Control−Low Control), where the low control is the average of 16 samples treated with 1% DMSO, and the high control is the average of 16 samples treated with 30 μM of Compound Y depicted below. Data were fit using a 4-parameter fit (log(agonist) vs. response−variable slope) using GraphPad Prism Software v.5. n=2 for all compounds. The Absolute EC50 was interpolated from the curve fit and is defined as the concentration at which a given compound elicits 50% of the high control response. Compounds failing to elicit a minimum response of 50% are reported as >30 μM. For compounds run in duplicate or n higher than 2, the result herein given is the geometric mean of the several results obtained.
Code definitions for the whole cell HEK assay values, expressed as Absolute EC50 which is defined as the concentration at which a given compound elicits 50% of the high control response (Compound Y). Compounds failing to elicit a minimum response of 50% are reported as *.
With `COc1cc(-c2nc(N)c3c(n2)NC(=O)C3(C)C(=O)NC2CC2)nn1Cc1ccccc1F` (stereo not drawn) [Compound I-44], the pEC50 was more than 7.00.

Take `COc1cc(-c2ncc(F)c(N3CCS(=O)(=O)CC3)n2)nn1Cc1ccccc1F` [Compound I-63]: the negative-log EC50 (pEC50) was less than 4.52.

`CCOC(=O)C1(C)C(=O)Nc2nc(-c3cc(OC(F)F)n(Cc4ccccc4F)n3)nc(N)c21` (stereo not drawn) [Compound I-72]: the pEC50 was more than 7.00.
